Measurements from patent publication US20220265759A1, “COMPOSITION AND METHOD FOR PROMOTING WOUND HEALING” (THE BOARD OF TRUSTEES OF THE UNIVERSITY OF ILLIOIS, priority 2019, published 2022).
Square brackets hold non-standard residues; d marks the D form. Ends that are not written are not given here. Peptide text beside a SMILES is read from it. * marks the point of attachment. d2Nal = N[C@H](Cc1ccc2ccccc2c1)C(=O)O; Myristoyl = CCCCCCCCCCCCCC(=O)*; Aib = CC(C)(N)C(=O)O

Legend:
CCR10-eNOS interaction [1] = target: T1, CCR10-eNOS interaction (Homo sapiens, UniProt P46092); test: Co-IP of CCR10-eNOS interaction in HUVECs stimulated with A23187; type: cell-based; conditions: endothelial cells (HUVECs), pretreatment 50 μM, 5 μM A23187 for 5 minutes, vs control peptide
T1 construct: host or cells: HUVEC (primary human umbilical vein endothelial cells)
T1 sequence (P46092 1-362): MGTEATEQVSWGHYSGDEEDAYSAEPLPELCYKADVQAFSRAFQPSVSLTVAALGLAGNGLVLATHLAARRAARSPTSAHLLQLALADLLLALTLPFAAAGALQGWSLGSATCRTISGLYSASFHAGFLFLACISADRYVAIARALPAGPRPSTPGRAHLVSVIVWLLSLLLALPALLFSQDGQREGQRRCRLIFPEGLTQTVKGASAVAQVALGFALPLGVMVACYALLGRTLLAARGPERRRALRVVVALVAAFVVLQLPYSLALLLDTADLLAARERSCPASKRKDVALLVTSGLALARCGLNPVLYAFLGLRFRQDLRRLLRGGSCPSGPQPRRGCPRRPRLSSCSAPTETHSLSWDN
Protocol: Immunoblot and Co-Immunoprecipitation (Co-IP). After serum starvation, inhibitors were added 45 minutes prior to stimulation for indicated times at 37° C., and cells were then collected and lysed for western blot analysis. After probing for p-eNOS (Ser1177), p-p85 (Tyr458), p-Src (Tyr 416), and p-ERK (T202/Y204), the same blots were stripped and re-probed for total proteins mentioned above. For detection of CCL28-induced protein levels of β-catenin and Bcl-2, near-confluent endothelial cells were incubated with 500 ng/ml CCL28 for 24 hours in EGM-2 medium containing 1% FBS.
(§1) Co-IP Experiments, cells or mouse wounds were collected after treatment, and lysed in 2% ODG in Tris buffer. The homogenates were further prepared for Co-IP experiments as described in the art (Chen, et al. (2018) Mol. Biol. Cell 29(10):1190-1202; Chen, et al. (2020) FASEB J. 34(4):5838-5850; Chen, et al. (2015) Ann. Rheum. Dis. 74:1898-1906).
Therefore, the effect of inhibition of CCR10-eNOS interaction was investigated using a panel of cell-permeable peptides based on the sequence of the predicted interaction domain on eNOS. Similar peptides have been described in determining the solution structure of calmodulin bound to the target peptide of eNOS (Piazza, et al. (2014) Biochemistry 53(8):1241-9; Piazza, et al. (2016) Biochemistry 55(42):5962-71). First, myristoylated 20 amino acid peptide (491-[…]-510 (P1); SEQ ID NO:61) was synthesized based on the sequence of human eNOS (which is conserved in mouse eNOS). […] It was subsequently determined whether truncated versions of the CBD-derived peptide would have the same effect.

[2] = cited from earlier work
HUVECs = test: Endothelial cell tube formation induced by CCL28; type: cell-based, human; conditions: induced by 500 ng/ml CCL28
Protocol: Endothelial Cell Tube Formation. HUVECs were transfected with eNOS (50 nM), CCR10 (100 nM), or scrambled control (100 nM) siRNA and, after 48 hours, the cells were transferred to 96-well plates preloaded with extracellular matrix sold under the tradename […]®. To examine the CCL28 signaling pathways, HUVECs were pre-incubated with vehicle or specific inhibitors and then stimulated with or without CCL28 as described previously (Chen, et al. (2015) Ann. Rheum. Dis. 74:1898-1906).
The role of CCL28/CCR10 signaling pathways was further investigated in angiogenesis. Pretreatment of cells with 10 μM wortmannin (PI3K inhibitor), 5 μM U0126 (MAPK/ERK inhibitor), 1 mM L-NAME (eNOS inhibitor), 10 μM PP2 (Src kinase inhibitor), and 10 μM STO-609 ([…]) reduced endothelial cell tube formation induced by 500 ng/ml CCL28. […] In addition, CCL28 stimulation of endothelial cells for 24 hours enhanced expression levels of cell adhesion protein […] and anti-apoptotic protein B-cell leukemia/lymphoma-2 (Bcl-2), supporting the proliferation potential of endothelial cells in response to stimulation with CCL28.

CCR10-eNOS interaction [3] = target: T1, CCR10-eNOS interaction; test: Ligand-induced CCR10-eNOS interaction in HUVEC (Co-IP, confocal co-localization); type: cell-based
Protocol: as §1
Confocal Microscopy. For cellular immunostaining, confluent monolayers of cells grown on coverslips were prepared as described previously (Chen, et al. (2012) Mel. Biol. Cell 23(7):1388-1398). Fluorescent images were obtained using a Zeiss LSM 880 confocal microscope. The co-localization coefficient in specified regions of interest (ROI) were determined using Zeiss Zen software. Briefly, using the Overlay tool, the desired ROI was drawn along the cell edge and the values for the ROIs tabulated. The scatterplot and table were automatically adjusted to the pixel distribution for the selected ROI. The data from different treatment groups were collected and analyzed for statistical significance as described previously (Chen, et al. (2020) FASEB J. 34(4):5838-5850).
To investigate whether CCR10 interacts directly with eNOS, primary culture HUVEC were collected and prepared for co-immunoprecipitation (Co-IP) to assess CCR10-eNOS interaction following stimulation with 5 μM A23187. […] Similar results were obtained in endothelial cells following stimulation with 500 ng/ml human recombinant CCL28. CCR10-eNOS interaction was further supported by confocal microscopy and high-resolution imaging. Upon stimulation with A23187 or CCL28 for 5 minutes, CCR10 co-localized to a greater extent with eNOS on the plasma membrane. Co-localization coefficient in the regions of interest (ROI) in the plasma membrane were quantified from Zeiss LSM 880 confocal microscope images using Zeiss Zen software.

With “myr-TRKKTFKEVANAVKISASLM (Myristoyl-TRKKTFKEVANAVKISASLM) [Peptide P1]” the “CCR10-eNOS interaction (Co-IP)” value (CCR10-eNOS interaction [1]) was “completely blocked” and the “CCR10-eNOS interaction (Co-IP)” value (CCR10-eNOS interaction [1]; listed as Myr-CBD20) was “significantly reduced”.
For albiglutide, the half-life ([2]; in humans) is listed as 140 to 170 h.
In the case of `N#CC(=C(/N)Sc1ccccc1N)/C(C#N)=C(\N)Sc1ccccc1N` [Peptide U0126], the “endothelial cell tube formation” value (HUVECs; pretreatment 5 μM) is reported as “reduced”.
With `COC(=O)[C@@H](N)CCCNC(=N)N[N+](=O)[O-]` [L-NAME, N^G-nitro-L-arginine methyl ester] the “endothelial cell tube formation” value (HUVECs; pretreatment 1 mM) was “reduced”.
In the case of peginesatide, the elimination half-life ([2]; in healthy volunteers) is listed as 18.9 h.
In the case of `CC(C)(N)C(=O)N[C@@H](Cc1c[nH]cn1)C(=O)N[C@H](Cc1ccc2ccccc2c1)C(=O)N[C@H](Cc1ccccc1)C(=O)N[C@@H](CCCCN)C(N)=O` [Ipamorelin] (H-[Aib]H[d2Nal][dF]K-NH2), the terminal half-life ([2]; in humans) is listed as “about 2 hours”.
In the case of `CNc1ccc2oc(C[C@H]3O[C@@]4(CC[C@H]3C)O[C@H]([C@H](C)C(=O)c3ccc[nH]3)[C@H](C)C[C@H]4C)nc2c1C(=O)O` [Peptide A23187], the “binding of CCR10 to eNOS (Co-IP)” value (CCR10-eNOS interaction [3]; HUVEC, 5 μM) is reported as “Enhanced”, the “time of maximum CCR10-eNOS binding” value (CCR10-eNOS interaction [3]; HUVEC, 5 μM) is reported as 5 minutes and the “Co-localization coefficient of CCR10 and eNOS” value (CCR10-eNOS interaction [3]; plasma membrane ROI, stimulation for 5 minutes, untreated control cells 43%) is reported as 81%.
With `O=C(O)c1ccc2c3c1cccc3c(=O)n1c3ccccc3nc21` [STO-609] the “endothelial cell tube formation” value (HUVECs; pretreatment 10 μM) was “reduced”.
In the case of `NC(=O)CC[C@@H]1NC(=O)[C@H](Cc2ccccc2)NC(=O)[C@H](Cc2ccc(O)cc2)NC(=O)[C@@H](N)CSSC[C@@H](C(=O)N2CCC[C@H]2C(=O)N[C@@H](CCCN=C(N)N)C(=O)NCC(N)=O)NC(=O)[C@H](CC(N)=O)NC1=O` [vasopressin], the half-life ([2]; in humans) is given as 0.167 to 0.583 h.
For “myr-FKEVANAVKISASLM (Myristoyl-FKEVANAVKISASLM) [Peptide P2]”, the “CCR10-eNOS interaction (Co-IP)” value (CCR10-eNOS interaction [1]) was “completely blocked”.
With “myr-VANAVKISASLM (Myristoyl-VANAVKISASLM) [Peptide P3]” the “CCR10-eNOS interaction (Co-IP)” value (CCR10-eNOS interaction [1]) was “completely blocked”.
